Test results as given in paper PMC8206213, “An L-2-hydroxyglutarate biosensor based on specific transcriptional regulator LhgR” (Nature Communications, 2021).
Values joined by “and” are separate entries in the source; they are usually repeats but may differ in a detail not shown here. Equal values may be shown once.

Legend:
LhgO = experiment: Enzymatic assay of LhgO in crude extracts of P. putida KT2440 derivatives grown on different carbon sources (induction of lhgO under LhgR control); type: cell-based, Pseudomonas putida
Method: The cells were harvested at mid-log phase, washed twice and resuspended in phosphate-buffered saline (PBS), then lysed by sonication on ice after the addition of 1 mM phenylmethylsulfonyl fluoride (PMSF). […] Protein concentrations of the supernatants were determined using the Bradford protein assay kit (Sangon, China). […] The 800 μL reaction solution contained 0.1 mM […], 0.05 mM DCPIP, 0.2 mM phenazine methosulfate (PMS) in PBS and 40 μL crude extracts.

LHGFR0N7C = experiment: Specificity of purified LHGFR0N7C, emission ratio with 240 μM compounds; type: binding, Pseudomonas putida W619; conditions: 240 μM compound
Method: (§1) Purified L-2-HG biosensors and different compounds were diluted by 50 mM Tris-HCl buffer (pH 7.4), mixed together in a black 96-well plate at a volume ratio of 3:1, and the fluorescence intensities were measured using an EnSight microplate reader (PerkinElmer, USA) with excitation at 430 nm, emission at 485 nm (mTFP) and 528 nm (Venus). […] The [L-2-HG], Kd, and p refer to the L-2-HG concentration, apparent dissociation constant, and Hill slope, respectively. Emission spectra were recorded at 430 nm excitation, in steps of 2 nm. Excitation spectra were recorded using emission at 550 nm, excitation from 380 to 535 nm in steps of 2 nm.

LHGFR0N3C = experiment: Influence of other compounds on the response of purified LHGFR0N3C to L-2-HG; type: binding, Pseudomonas putida W619; conditions: Suppl. Fig. 9a; L-2-HG alone or with the compound; three replicates
Method: as §1

[1] = tested on: LHGFR3N7C expressed in E. coli BL21(DE3); experiment: Control biosensor LHGFR3N7C expressed in E. coli, response to added compounds; type: cell-based; conditions: Supplementary Fig. 14a
Method: To characterize the sensitivity and specificity of LHGFR expressed in E. coli BL21(DE3), 90 μL cell suspensions following 8 h carbon starvation were mixed with 10 μL increasing concentrations of L-2-HG or other compounds, and then added into a black 96-well plate (total 100 μL/per well), the fluorescence intensities were determined using an EnSight microplate reader (PerkinElmer, USA) and the following instrument settings: excitation at 430 nm, emission at 485 nm (mTFP) and 528 nm (Venus), time intervals of 5 min, the temperature at 37 °C, and shake at 180 rpm.

O=C(O)CCCC(=O)O [Glutarate, glutarate]
LhgO activity (LhgO; crude extract of DcsiRDcsiDDlhgO-pME6032-F2-lhgR-F1-lhgO grown with the compound as sole carbon source): no activity of LhgO was detected | LhgO activity (LhgO; crude extract of DcsiRDlhgO-pME6032-F2-lhgR-F1-lhgO grown with the compound as sole carbon source): 0.02427 and 0.01721 and 0.01877 | LhgO activity (LhgO; crude extract of DcsiRDlhgO-pME6032-F2-lhgR-F1-lhgO grown with the compound as sole carbon source, listed as glutarate): activity of LhgO was also detected | LhgO activity (LhgO; crude extract of DcsiRDlhgO-pME6032 grown in MSM with the compound as sole carbon source): 7.09E-04 and 9.66E-04 and 0.00113 | Induction of lhgO expression / effector molecule of LhgR (LhgO; gene segment F2-lhgR-F1-lhgO in P. putida KT2440 derivatives): neither D-2-HG nor glutarate can serve as the effector molecule of LhgR | Emission ratio (LHGFR0N7C): 1.71 (2×) and 1.717 | Induction of emission ratio changes (LHGFR0N7C): None | Emission ratio (LHGFR0N3C): 2.055 and 2.045 and 2.058 | normalized emission ratio of control biosensor expressed in E. coli ([1]; time 0 min): 1.008 and 0.9954 and 0.9826 and 0.9922 | normalized emission ratio of control biosensor expressed in E. coli ([1]; time 5 min): 1.009 and 0.9959 and 0.9842 and 0.997 | normalized emission ratio of control biosensor expressed in E. coli ([1]; time 10 min): 1.009 and 0.9912 and 0.9859 and 0.9988 | normalized emission ratio of control biosensor expressed in E. coli ([1]; time 15 min): 1.011 and 0.9845 and 0.9854 and 0.993 | normalized emission ratio of control biosensor expressed in E. coli ([1]; time 20 min): 1.001 (2×) and 0.9957 and 0.9921 | normalized emission ratio of control biosensor expressed in E. coli ([1]; time 25 min): 1.004 and 0.9829 and 0.99 and 1.01 | normalized emission ratio of control biosensor expressed in E. coli ([1]; time 30 min): 1.003 and 0.9825 and 0.992 and 1.008 | normalized emission ratio of control biosensor expressed in E. coli ([1]; time 35 min): 1.004 (2×) and 0.9933 and 1.0123 | normalized emission ratio of control biosensor expressed in E. coli ([1]; time 40 min): 1.001 and 1.002 and 0.9991 and 1.015 | normalized emission ratio of control biosensor expressed in E. coli ([1]; time 45 min): 1.004 and 1.003 and 1.002 and 1.015 | normalized emission ratio of control biosensor expressed in E. coli ([1]; time 50 min): 1.007 and 1.003 and 0.9994 and 1.015 | normalized emission ratio of control biosensor expressed in E. coli ([1]; time 55 min): 1.005 and 0.994 and 1.003 and 1.016 | normalized emission ratio of control biosensor expressed in E. coli ([1]; time 60 min): 1.022 and 0.993 and 1.012 and 1.027 | normalized emission ratio of control biosensor expressed in E. coli ([1]; time 65 min): 1.018 and 1.003 and 1.0048 and 1.024 | normalized emission ratio of control biosensor expressed in E. coli ([1]; time 70 min): 1.018 (2×) and 1.011 and 1.029 | normalized emission ratio of control biosensor expressed in E. coli ([1]; time 75 min): 1.029 and 0.9995 and 1.018 and 1.031 | normalized emission ratio of control biosensor expressed in E. coli ([1]; time 80 min): 1.036 and 1.008 and 1.027 and 1.028 | normalized emission ratio of control biosensor expressed in E. coli ([1]; time 85 min): 1.027 and 1.007 and 1.024 and 1.023 | normalized emission ratio of control biosensor expressed in E. coli ([1]; time 90 min): 1.042 and 1.01 and 1.0199 and 1.034
